Data: ChEMBL document CHEMBL1201862, “PubChem BioAssay data set” (2004)
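Each compound was tested at five concentrations against cells in 96-well plates for 48 hours. GI50 marks 50% less growth.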 The source made the active and inactive calls. No stated cut-off is given here; in the data, active = GI50 up to about 1.1 µM and inactive = higher.

Assays:
Test in all cases: NCI-60 cell line screen, 48 h
[1] = system: 786-0
[2] = system: OVCAR-3
[3] = system: DU-145
[4] = system: SK-MEL-28
[5] = system: HCT-116
[6] = system: HCT-15
[7] = system: TK-10
[8] = system: SF-295
[9] = system: M14
[10] = system: SNB-19
[11] = system: LOX IMVI
[12] = system: COLO 205
[13] = system: NCI-H23
[14] = system: SK-OV-3
[15] = system: KM12
[16] = system: Malme-3M
[17] = system: OVCAR-5
[18] = system: UO-31
[19] = system: NCI-H522
[20] = system: T47D

Compound	GI50 [1]	GI50 [2]	GI50 [3]	GI50 [4]	GI50 [5]	GI50 [6]	GI50 [7]	GI50 [8]	GI50 [9]	GI50 [10]	GI50 [11]	GI50 [12]	GI50 [13]	GI50 [14]	GI50 [15]	GI50 [16]	GI50 [17]	GI50 [18]	GI50 [19]	GI50 [20]
O=C1/C(=C/c2cccnc2)C(n2cccc2)c2c(Br)sc(Br)c21 (stereo not given)	2.55 µM (inactive)	1.92 µM (inactive)	1.94 µM (inactive)	2.53 µM (inactive)	2.26 µM (inactive)	2.02 µM	1.69 µM (inactive)	15.2 µM (inactive)	2.15 µM (inactive)	4.7 µM (inactive)	1.93 µM (inactive)	6.64 µM (inactive)	2.52 µM (inactive)	15.8 µM (inactive)	3.43 µM (inactive)	3.01 µM (inactive)	15 µM (inactive)	1.78 µM (inactive)	6.07 µM (inactive)	2.82 µM (inactive)
O=C(O)C1C2C=CC(O2)C1C(=O)NCc1ccccn1 (stereo not given)	> 100 µM (inactive)	> 100 µM (inactive)	> 100 µM (inactive)	> 100 µM (inactive)	> 100 µM (inactive)	> 100 µM	> 100 µM (inactive)	> 100 µM (inactive)	> 100 µM (inactive)	> 100 µM (inactive)	> 100 µM (inactive)	> 100 µM (inactive)	> 100 µM (inactive)	> 100 µM (inactive)	> 100 µM (inactive)	> 100 µM (inactive)	> 100 µM (inactive)	> 100 µM (inactive)	> 100 µM (inactive)	> 100 µM (inactive)
OC1CCCCCCCCCCC1SCCCCl (stereo not given)	> 100 µM (inactive)	> 100 µM (inactive)	> 100 µM (inactive)	> 100 µM (inactive)	> 100 µM (inactive)	> 100 µM	> 100 µM (inactive)	> 100 µM (inactive)	> 100 µM (inactive)	> 100 µM (inactive)	> 100 µM (inactive)	> 100 µM (inactive)	> 100 µM (inactive)	> 100 µM (inactive)	> 100 µM (inactive)	81.8 µM (inactive)	> 100 µM (inactive)	> 100 µM (inactive)	> 100 µM (inactive)	> 100 µM (inactive)
CC(C)(C)C1=C(Br)C(Br)(C(C)(C)C)OP1(=O)c1ccccc1 (stereo not given)	> 100 µM (inactive)	> 100 µM (inactive)	> 100 µM (inactive)	> 100 µM (inactive)	> 100 µM (inactive)	> 100 µM	> 100 µM (inactive)	> 100 µM (inactive)	> 100 µM (inactive)	> 100 µM (inactive)	> 100 µM (inactive)	> 100 µM (inactive)	> 100 µM (inactive)	> 100 µM (inactive)	> 100 µM (inactive)	> 100 µM (inactive)	> 100 µM (inactive)	> 100 µM (inactive)	> 100 µM (inactive)	31.5 µM (inactive)
O=C(Nc1ccccc1)OC1OC(COC(=O)c2ccccc2)C(OC(=O)c2ccccc2)C1OS(=O)(=O)c1ccc([N+](=O)[O-])cc1 (stereo not given)	> 100 µM (inactive)	74.6 µM (inactive)	> 100 µM (inactive)	> 100 µM (inactive)	> 100 µM (inactive)	> 100 µM	> 100 µM (inactive)	> 100 µM (inactive)	> 100 µM (inactive)	> 100 µM (inactive)	> 100 µM (inactive)	> 100 µM (inactive)	> 100 µM (inactive)	> 100 µM (inactive)	> 100 µM (inactive)	> 100 µM (inactive)	> 100 µM (inactive)	> 100 µM (inactive)	40.3 µM (inactive)	> 100 µM (inactive)
CC(=O)O[C@H]1C[C@@H](OC(C)=O)[C@@](C)(O)[C@@H]2[C@@H](OC(C)=O)[C@@]3(O)[C@H](/C=C(/CCl)[C@H]4O[C@H]4[C@@H](OC(C)=O)[C@@]12C)OC(=O)[C@@H]3C	> 25 µM (inactive)	> 25 µM (inactive)	> 25 µM (inactive)	17.4 µM (inactive)	> 25 µM (inactive)	> 25 µM	> 25 µM (inactive)	17.7 µM (inactive)	> 25 µM (inactive)	> 25 µM (inactive)	21.2 µM (inactive)	> 25 µM (inactive)	> 25 µM (inactive)	> 25 µM (inactive)	> 25 µM (inactive)	> 25 µM (inactive)	> 25 µM (inactive)	> 25 µM (inactive)	> 25 µM (inactive)	> 25 µM (inactive)
C#CCN(Cc1ccc2nc(OC)c(OC)nc2c1)c1cc(OC)c(OC)c(OC)c1	24 µM (inactive)	37.8 µM (inactive)	27.6 µM (inactive)	40.9 µM (inactive)	16.7 µM (inactive)	22.9 µM	35.5 µM (inactive)	16.3 µM (inactive)	22.1 µM (inactive)	26.6 µM (inactive)	11.7 µM (inactive)	17.4 µM (inactive)	8.36 µM (inactive)	24.5 µM (inactive)	15 µM (inactive)	23 µM (inactive)	40.2 µM (inactive)	22.1 µM (inactive)	9.44 µM (inactive)	18.4 µM (inactive)
C/C(=N/S(=O)(=O)c1ccc(Cl)c(Cl)c1)OCC(C)(C)C	> 100 µM (inactive)	> 100 µM (inactive)	> 100 µM (inactive)	> 100 µM (inactive)	> 100 µM (inactive)	> 100 µM	> 100 µM (inactive)	> 100 µM (inactive)	> 100 µM (inactive)	> 100 µM (inactive)	> 100 µM (inactive)	> 100 µM (inactive)	> 100 µM (inactive)	> 100 µM (inactive)	> 100 µM (inactive)	> 100 µM (inactive)	> 100 µM (inactive)	> 100 µM (inactive)	> 100 µM (inactive)	> 100 µM (inactive)
CC(=O)c1c(C(F)(F)F)[n+]([O-])c2cc(Cl)c(Cl)cc2[n+]1[O-]	0.168 µM (active)	1.36 µM (inactive)	1.26 µM (inactive)	1.88 µM (inactive)	0.249 µM (active)	0.196 µM	0.212 µM (active)	0.719 µM (active)	1.21 µM (inactive)	0.83 µM (active)	0.157 µM (active)	0.746 µM (active)	0.938 µM (active)	1.46 µM (inactive)	0.109 µM (active)	0.685 µM (active)	1.63 µM (inactive)	0.41 µM (active)	0.165 µM (active)	0.338 µM (active)
O=C1C(C(c2ccccc2)N2CCOCC2)=C(O)C(c2ccccc2)N1c1ccccc1 (stereo not given)	> 10 µM (inactive)	> 10 µM (inactive)	> 10 µM (inactive)	> 10 µM (inactive)	> 10 µM (inactive)	> 10 µM	> 10 µM (inactive)	> 10 µM (inactive)	> 10 µM (inactive)	> 10 µM (inactive)	> 10 µM (inactive)	> 10 µM (inactive)	> 10 µM (inactive)	> 10 µM (inactive)	> 10 µM (inactive)	3.05 µM (inactive)	> 10 µM (inactive)	> 10 µM (inactive)	> 10 µM (inactive)	> 10 µM (inactive)
